Test results published in patent US12440435B2, “Solubilization of poorly soluble cooling substances” (SYMRISE AG, priority 2018, dated 2025).

Test: Dissolving the cooling agent in a solvent with stepwise heating, then cooling to room temperature and observing crystallisation
Assay type: physicochemical

amount of cooling agent that can be dissolved (in 2-hydroxypropyl (2-isopropyl-5-methyl-cyclohexyl) carbonate, (2-isopropyl-5-methyl-cyclohexyl) 2-hydroxypropanoate or a mixture of both, based on the total weight of the composition): up to 12 % by weight
solubility in medium-chain triglycerides (medium-chain triglycerides as solvent, even at 60° C.): insoluble
Structure (SMILES): COc1ccc(NC(=O)[C@@H]2C[C@H](C)CC[C@H]2C(C)C)cc1 [(1R,2S,5R)-N-(4-methoxyphenyl)-5-methyl-2-(1-methylethyl)-cyclohexane-carboxamide]
